# Values quoted from earlier work in patent US20130217743A1, “CANCER PREVENTION AND TREATMENT METHODS BASED ON DIETARY POLYAMINE CONTENT” (CANCER PREVENTION PHARMACEUTICALS, INC., priority 2010, published 2013).
# How the values were obtained:
# [1] = tested on: tumors harboring Ki-ras mutations; settings: AOM-treated rats; reduced from 90%
# tumor putrescine levels = settings: rat-tumor model, DFMO infusion
# [2] = tested on: prostoglandin E2 (PGE2) levels in flat mucosa; settings: 300 mg/day, one month
# [3] = for mean half-life: in vivo
# [4] = human, in vivo
smiles,measurement,setting,value
"NCCCC(N)(C(=O)O)C(F)F (racemic) [DFMO, 2-(difluoromethyl)-dl-ornithine]",number of tumors harboring Ki-ras mutations,[1],36%
same,decrease in tumor putrescine levels,tumor putrescine levels,90%
CC1=C(CC(=O)O)c2cc(F)ccc2/C1=C\c1ccc(S(C)(=O)=O)cc1 [Sulindac sulfone],COX-inhibitory activity,COX,lacks COX-inhibitory activity
CC(C)Cc1ccc(C(C)C(=O)O)cc1 (centres unmarked) [ibuprofen],PGE2 levels in flat mucosa,[2],significant decrease
"CN1C(C(=O)Nc2ccccn2)=C(O)c2ccccc2S1(=O)=O [piroxicam, 4-hydroxy-2-methyl-N-2-pyridyl-2H-1,2-benzothiazine-3-carboxamide 1,1-dioxide]",number of tumors harboring Ki-ras mutations,[1],25%
CSc1ccc(/C=C2/C(C)=C(CC(=O)O)c3cc(F)ccc32)cc1 [sulfide metabolite],mean half-life,[3],16.4 h
"CC1=C(CC(=O)O)c2cc(F)ccc2/C1=C\c1ccc([S+](C)[O-])cc1 (centres unmarked) [sulindac, (Z)-5-fluoro-2-methyl-1-((4(methylsulfinyl)phenyl)methylene) 1H-indene-3-acetic acid]","mild gastrointestinal effects, patients",[4],~20%
same,"skin rash and pruritus, patients",[4],5%
same,drug absorbed,[3]; after oral administration,about 90%
same,time to peak plasma levels,[3]; fasting patients,about 2 hours
same,mean half-life,[3],7.8 h
